Test results published in patent US6334445B1, “Methods and compositions for treatment of ovarian cancer” (Baker Norton Pharmaceuticals, Inc., priority 1997, dated 2002).
Where two headings read alike, the source gives them in different places.

Columns and labels:
[1] = infusion times 3 to 24 hours; cited from earlier work
mammalian cells = conditions: 50 nM paclitaxel concentration; cited from earlier work
breast cancer [2] = conditions: cited from earlier work
breast cancer [3] = conditions: paclitaxel 135 mg/m^2 in combination with cisplatin 75 mg/m^2; cited from earlier work
ovarian cancer = conditions: cited from earlier work

## CC(=O)O[C@H]1C(=O)[C@@]2(C)[C@H]([C@H](OC(=O)c3ccccc3)[C@]3(O)C[C@H](OC(=O)[C@H](O)[C@@H](NC(=O)c4ccccc4)c4ccccc4)C(C)=C1C3(C)C)[C@]1(OC(C)=O)CO[C@@H]1C[C@@H]2O [paclitaxel, 5β, 20-epoxy-1 ,2α4,7β10β13α-hexahydroxytax-11-en-9-one 4, 10-diacetate 2-benzoate 12-ester with (2R,3S)-Nbenzoyl-3-phenylisososerine]
Ovarian carcinoma; of 14 patients, 140 mg/m^2 over 96 hour infusion every 21 days
  partial responses: 3
Ovarian carcinoma; of 14 patients, 96 hour infusion
  patients with stable disease: One
Ovarian carcinoma; partial responses plus stable disease, 14 patients, 96 hour infusion
  overall response rate: 29%
Ovarian carcinoma; partial responses, 14 patients, 96 hour infusion
  response rate: 21%
[1]
  dose limiting toxicity: reversible myelosuppression
Mammalian cells
  effect on microtubules and cells: significant increase in microtubule number
Breast cancer [2]; doses of 250 mg/m^2 with G-CSF, single agent
  response rate: 36-71%
Breast cancer [2]; doses of 135 to 175 mg/m^2, single agent
  response rate: 13-37%
Breast cancer [3]
  response rate: 79%
Ovarian cancer; 135 mg/m^2 every three weeks
  response rate: 15%
Ovarian cancer; 175 mg/m^2 every three weeks
  response rate: 20%
Ovarian cancer; higher dose (175 mg/m^2)
  time to tumor progression: 19 weeks
Ovarian cancer; lower dose (135 mg/m^2)
  time to tumor progression: 14 weeks
